We go through three compounds from patent EP2331496B1, “USE OF AN N-ACYL AMINO ACID SELECTED FROM AMONG N-PALMITOYL ALANINE, N-PALMITOYL GLYCINE, AND N-PALMITOYL ISOLEUCINE AS A REGULATING ACTIVE AGENT OF THE GENETIC PROFILE OF SENESCENT REPLICATING FIBROBLASTS OF THE HUMAN SKIN DERMIS” (Societe D'Exploitation De Produits Pour Les Industries …, priority 2008, dated 2010).

Assay [1] has as its system gène codant la dermatopontine (DPT). The assay is described as follows: Q-PCR gene expression in replicative senescent human dermal fibroblasts: DPT. It counts as cell-based, humains. The settings on record: aged fibroblasts from adult dermis (16 passages), cultured 96 h with the substance, compared with young cells (8 passages, 100 %). The source says: (§1) Des fibroblastes humains normaux issus de derme adulte et vieillis de manière accélérée (16 passages en culture) ou non (8 passages en culture) ont été cultivés en présence ou non de chacun des quatre N-acyl amino acides suivants : N-palmitoyl glycine, N-palmitoyl alanine, N-palmitoyl isoleucine et N-cocoyl alanine pendant 96 heures. A la fin de l'expérience, les cellules ont été lavées et extraites pour l'analyse génomique. Cette dernière a été réalisée par Q-PCR ("Quantitative Polymerase Chain Reaction").
(§2) Pour chacun des diagrammes de ces figures, les résultats sont exprimés en pourcentage de variation des niveaux relatifs d'expression génique par rapport aux cellules jeunes (100 %), les pourcentages en haut des histogrammes expriment les pourcentages de restauration et les abréviations indiquées sont conformes à la nomenclature officielle Genbank.

In assay [2] the test system is gène codant la métallo protéinase MMP-1. Put plainly: Q-PCR gene expression in replicative senescent human dermal fibroblasts: MMP-1. The settings on record: aged fibroblasts from adult dermis (16 passages), cultured 96 h with the substance, compared with young cells (8 passages, 100 %). It counts as cell-based, humains.
Description: as §1, §2

For assay [3], the system named is gène codant le collagène de type I (COL1A1). Put plainly: Q-PCR gene expression in replicative senescent human dermal fibroblasts: COL1A1. The assay is classed as cell-based, humains. The settings on record: aged fibroblasts from adult dermis (16 passages), cultured 96 h with the substance, compared with young cells (8 passages, 100 %).
Description: as §1, §2

For assay [4], the system named is sujets caucasiens âgés de 45 ans à 76 ans et présentant des rides de vieillissement cutané. Put plainly: In vivo anti-wrinkle efficacy, topical gel-cream on the eye contour (crow's feet). As to conditions: 1% gel-cream, topical twice daily on the face, crow's feet zone, 42 days, about 20 volunteers/group; results expressed relative to a commercial reference lipopeptide product. Details: species or system humain. The source says:
Les N-acyl amino acides testés ont été formulés en gel-crème à 1% dans le couple d'émulsionnants MONTANOV™ 202, MONTANOV™ 82, l'épaississant SEPIPLUS™ 400 ainsi que le MONTANOX™ 60D, afin d'effectuer des applications topiques biquotidiennes sur le visage de sujets caucasiens âgés de 45 ans à 76 ans et présentant des rides de vieillissement cutané (environ 20 volontaires/groupe). Un produit lipopeptidique commercial de référence a également été testé selon le même protocole expérimental.
La région anatomique choisie pour cette étude était la zone du contour de l'oeil (patte d'oie).
La durée du traitement a été de 42 jours.
Les résultats ont été exprimés en termes de surface ridée totale et de nombre de rides par rapport à un produit lipopeptidique commercial de référence.

Assay [5] concerns gène codant la cytokine pro-inflammatoire IL-6. Put plainly: Q-PCR gene expression in replicative senescent human dermal fibroblasts: IL-6. As to conditions: aged fibroblasts from adult dermis (16 passages), cultured 96 h with the substance, compared with young cells (8 passages, 100 %). The assay is classed as cell-based, humains.
Description: as §1, §2

Assay [6] relates to gène codant la protéine de choc thermique (HSP 90A). The assay is described as follows: Q-PCR gene expression in replicative senescent human dermal fibroblasts: HSP 90A. The settings on record: aged fibroblasts from adult dermis (16 passages), cultured 96 h with the substance, compared with young cells (8 passages, 100 %). The assay is classed as cell-based, humains.
Description: as §1, §2

In assay [7] the test system is gène codant la tenascine C (TNC). The assay is described as follows: Q-PCR gene expression in replicative senescent human dermal fibroblasts: TNC. It counts as cell-based, humains. The settings on record: aged fibroblasts from adult dermis (16 passages), cultured 96 h with the substance, compared with young cells (8 passages, 100 %).
Description: as §1, §2

Assay [8] has as its system gène codant le nidogène (NID). Put plainly: Q-PCR gene expression in replicative senescent human dermal fibroblasts: NID. It counts as cell-based, humains. As to conditions: aged fibroblasts from adult dermis (16 passages), cultured 96 h with the substance, compared with young cells (8 passages, 100 %).
Description: as §1, §2

The test system of assay [9] is gène codant la pleiotrophine (PTN). The assay is described as follows: Q-PCR gene expression in replicative senescent human dermal fibroblasts: PTN. It counts as cell-based, humains. As to conditions: aged fibroblasts from adult dermis (16 passages), cultured 96 h with the substance, compared with young cells (8 passages, 100 %).
Description: as §1, §2

For assay [10], the system named is gène codant la Serpine 1H (HSP47). The assay is described as follows: Q-PCR gene expression in replicative senescent human dermal fibroblasts: Serpine 1H (HSP47). The assay is classed as cell-based, humains. The settings on record: aged fibroblasts from adult dermis (16 passages), cultured 96 h with the substance, compared with young cells (8 passages, 100 %).
Description: as §1, §2

The test system of assay [11] is gène codant le biglycane (BGN). Put plainly: Q-PCR gene expression in replicative senescent human dermal fibroblasts: BGN. The assay is classed as cell-based, humains. As to conditions: aged fibroblasts from adult dermis (16 passages), cultured 96 h with the substance, compared with young cells (8 passages, 100 %).
Description: as §1, §2

A further assay deals with gène codant la vimentine. Put plainly: Q-PCR gene expression in replicative senescent human dermal fibroblasts: vimentine. As to conditions: aged fibroblasts from adult dermis (16 passages), cultured 96 h with the substance, compared with young cells (8 passages, 100 %). The assay is classed as cell-based, humains.
Description: as §1, §2

In assay [12] the test system is gène codant la Serpine 2B. The assay is described as follows: Q-PCR gene expression in replicative senescent human dermal fibroblasts: Serpine 2B. The assay is classed as cell-based, humains. The settings on record: aged fibroblasts from adult dermis (16 passages), cultured 96 h with the substance, compared with young cells (8 passages, 100 %).
Description: as §1, §2

With `CCCCCCCCCCCCCCCC(=O)N[C@@H](C)C(=O)O` [N-palmitoyl alanine], the “niveau d'expression du gène codant la dermatopontine (DPT)” value in [1] is given as “augmentation du niveau d'expression”. Also, the “niveau d'expression du gène codant la métallo protéinase MMP-1” value in assay [2] was “diminution du niveau d'expression”. In addition, the “niveau d'expression du gène codant le collagène de type I (COL1A1)” value in [3] is given as “augmentation du niveau d'expression”. Also, in assay [4], the “diminution de la surface ridée totale” value came to 15%. Moreover, the “niveau d'expression du gène codant la cytokine pro-inflammatoire IL-6” value in assay [5] was “diminution du niveau d'expression”.

For `CCCCCCCCCCCCCCCC(=O)NCC(=O)O` [N-palmitoyl glycine], in assay [1], the “niveau d'expression du gène codant la dermatopontine (DPT)” value is “augmentation du niveau d'expression”. Also, the “niveau d'expression du gène codant la métallo protéinase MMP-1” value in assay [2] is reported as “diminution du niveau d'expression”. Besides, in assay [6], the “niveau d'expression du gène codant la protéine de choc thermique (HSP 90A)” value is “augmentation du niveau d'expression”. Further, the “niveau d'expression du gène codant la tenascine C (TNC)” value in assay [7] was “augmentation du niveau d'expression”. Also, the “niveau d'expression du gène codant le nidogène (NID)” value in [8] was “augmentation du niveau d'expression”. In addition, the “niveau d'expression du gène codant la pleiotrophine (PTN)” value in assay [9] is given as “augmentation du niveau d'expression”. Moreover, the “diminution du nombre de rides” value in assay [4] came out at 35%. Moreover, in assay [5], the “niveau d'expression du gène codant la cytokine pro-inflammatoire IL-6” value is “diminution du niveau d'expression”.

As for `CCCCCCCCCCCCCCCC(=O)N[C@H](C(=O)O)[C@@H](C)CC` [N-palmitoyl isoleucine], in assay [1], the “niveau d'expression du gène codant la dermatopontine (DPT)” value is given as “augmentation du niveau d'expression”. Moreover, the “niveau d'expression du gène codant la Serpine 1H (HSP47)” value in [10] is “augmentation du niveau d'expression”. The “niveau d'expression du gène codant la protéine de choc thermique (HSP 90A)” value in assay [6] is listed as “augmentation du niveau d'expression”. In addition, the “niveau d'expression du gène codant la tenascine C (TNC)” value in assay [7] is recorded as “augmentation du niveau d'expression”. Further, the “niveau d'expression du gène codant le biglycane (BGN)” value in [11] is reported as “augmentation du niveau d'expression”. Further, the “niveau d'expression du gène codant le nidogène (NID)” value in [8] is on record as “augmentation du niveau d'expression”. Besides, the “niveau d'expression du gène codant le collagène de type I (COL1A1)” value in assay [3] is given as “augmentation du niveau d'expression”. Also, in assay [9], the “niveau d'expression du gène codant la pleiotrophine (PTN)” value is “augmentation du niveau d'expression”. The “diminution du nombre de rides” value in [4] is 40%. For the same compound, the “niveau d'expression du gène codant la vimentine” value in the assay with gène codant la vimentine is given as “augmentation du niveau d'expression”. For the same compound, the “niveau d'expression du gène codant la Serpine 2B” value in assay [12] is listed as “diminution du niveau d'expression”. The “niveau d'expression du gène codant la cytokine pro-inflammatoire IL-6” value in [5] was “diminution du niveau d'expression”.
